From US20250269018A1, “COMBINED CANCER THERAPY WITH AN EPITHELIAL CELL ADHESION MOLECULE (EPCAM) INHIBITOR AND A HEPATOCYTE GROWTH FACTOR RECEPTOR (HGFR) INHIBITOR” (ACADEMIA SINICA, priority 2021, published 2025)

B1: EpAb2-6: anti-EpCAM neutralizing monoclonal antibody targeting EpEX; VH SEQ ID NO: 15, VL SEQ ID NO: 16 (antibody, listed as Homo sapiens, V domains shown)
VH: VKLQESGPELKKPGETVKISCKASGYTFTDYSMHWVKQAPGKGLKWMGWINTETGEPTYADDFKGRFAFSLETSASTAYLQINNLKNEDTATYFCARTAVYWGQGTTVTVSS
VL: DIQMTQSPSSLSASLGERVSLTCRASQEISVSLSWLQQEPDGTIKRLIYATSTLDSGVPKRFSGSRSGSDYSLTISSLESEDFVDYYCLQYASYPWTFGGGTKLEIKRADAAPTVS

What was measured:
HCT116 cells = assay: Apoptosis assay, annexin V-FITC/PI double labeling, HCT116; assay type: cell-based, human; details: 10 μg/ml 24 h, FIG. 7C
ADAM17 and presenilin 2 = assay: Western blotting of RIP proteins ADAM17 and presenilin 2 in HCT116 cells; assay type: cell-based, human; details: 10 μg/ml 16 h, then EpEX-His 50 nM 15 min, FIG. 7E
Procedure: FIGS. 7A to 7G. EpAb2-6 binds EpEX and induces apoptosis by F(ab′)2 and inhibits regulated intramembrane proteolysis (RIP) activation and HGFR signaling. (FIG. 7A) Binding affinity of IgG EpAb2-6 (mouse) and F(ab′)2 to EpEX-His (1 μg/ml) coated overnight was checked using ELISA (OD450). (FIG. 7B) HCT116 cells were treated with 100 μg/ml control IgG, Fc, or F(ab′)2 of EpAb2-6 for 24 h. The apoptotic and necrotic cells were quantified by fluorescein annexin V-FITC/PI double labeling. (FIG. 7C) HCT116 and HT29 cells were treated with 10 μg/ml control IgG, MT201, humanized EpAb2-6 (hEpAb2-6) or mouse hybridoma EbAb2-6 (mEpAb2-6) for 24 h. The apoptotic and necrotic cells were quantified by fluorescein annexin V-FITC/PI double labeling. (FIG. 7D) HCT116 cells were treated with 10 μg/ml control IgG, MT201, hEpAb2-6 or mEpAb2-6 for 16 h, followed by treatment with EpEX-His (50 nM) for 15 min. Levels of phosphorylated HGFR, AKT, and ERK, and (FIG. 7E) RIP proteins ADAM17 and presenilin 2 were examined by Western blotting. Anti-EpCAM antibody and crizotinib coordinately induces apoptosis in colon cancer cells. (FIG. 7F) HCT116 and HT29 cells were treated with 10 μg/ml NMIgG or EpAb2-6 and 4 μM HGFR inhibitor crizotinib for 24 h. The apoptotic and necrotic cells were quantified by fluorescein annexin V-FITC/PI double labeling. […] Cell invasion was assessed by a Transwell assay with matrigel after 24 h.
Whole cell extracts were prepared with RIPA buffer (50 mM Tris-HCl pH7.4, 1% NP-40, 0.5% Sodium deoxycholate, 0.1% SDS, 150 mM NaCl, 2 mM EDTA, 50 mM NaF). Protein concentrations of the cell lysates were determined by the Bradford assay. […]
Appropriate horseradish peroxidase-associated secondary antibodies (Millipore) were applied and the membranes were incubated at room temperature (RT) for 1 h. The protein bands were subsequently visualized with chemiluminescence reagents (Millipore) and detected on a BioSpectrum 600 Imaging system (UVP). The protein level was quantified from band intensity using Gel-Pro analyzer 3.1 (Media Cybernetics).

EpCAM = assay: Antibody binding to EpCAM wild-type and mutants expressed in HEK293T cells (immunofluorescence, flow cytometry, cellular ELISA); design: species or system human; details: HEK293T; immunofluorescence, flow cytometry, cellular ELISA; FIG. 8E-8G
Procedure: FIGS. 8A to 8G. EpAb2-6 binds to both EGF-like domain I and II of EpCAM. HEK293T cells were transfected with full length or EGF like-domain deletion mutant EpCAM-V5. Antibody binding was assessed by (FIG. 8A) Western blotting, (FIG. 8B) flow cytometry, and (FIG. 8C) immunofluorescence. (FIG. 8D) EpCAM mutants were constructed with amino acid substitutions in the EGF-I (Y32A) and EGF-II (L94A, Y95A, or D96A) domains. EpCAM wild-type and mutant proteins were expressed in HEK293T cells. Binding of MT201, EpAb2-6 and EpAb23-1 to EpCAM wild-type and mutants were evaluated by (FIG. 8E) immunofluorescence, (FIG. 8F) flow cytometry, and (FIG. 8G) cellular ELISA.
A previous study identified the binding epitope of EpAb2-6 antibody as the LYD motif in EpCAM, which corresponds to amino acid residues 94-96; in particular, residue 95 (Y95) plays a major role in EpAb2-6 binding (Liao et al., 2015). […] Therefore, we wanted to determine whether the antibody binds to EpCAM at both EGF-like domains of EpEX (FIG. 8A, FIG. 8B, FIG. 8C). To confirm that EpAb2-6 recognizes the LYD motif in EpCAM, we constructed cDNA sequences encoding the first (aa 27-59; EGF-I domain) and second (aa 66-135; EGF-II/TY domain) EGF-like repeats of EpCAM. PCR-based site-directed mutagenesis was then used to introduce mutations into each domain (FIG. 8D). The reactivity of EpAb2-6 antibody toward these EpCAM mutants was evaluated by immunofluorescence (FIG. 8E), flow cytometry (FIG. 8F), and cellular ELISA (FIG. 8G).

cancer cells = details: comparison in the description; previous work; cited from earlier work
HT29 cells = assay: Apoptosis assay, annexin V-FITC/PI double labeling, HT29; assay type: cell-based, human; details: 10 μg/ml 24 h, FIG. 7C
Procedure: FIGS. 7A to 7G. EpAb2-6 binds EpEX and induces apoptosis by F(ab′)2 and inhibits regulated intramembrane proteolysis (RIP) activation and HGFR signaling. (FIG. 7A) Binding affinity of IgG EpAb2-6 (mouse) and F(ab′)2 to EpEX-His (1 μg/ml) coated overnight was checked using ELISA (OD450). (FIG. 7B) HCT116 cells were treated with 100 μg/ml control IgG, Fc, or F(ab′)2 of EpAb2-6 for 24 h. The apoptotic and necrotic cells were quantified by fluorescein annexin V-FITC/PI double labeling. (FIG. 7C) HCT116 and HT29 cells were treated with 10 μg/ml control IgG, MT201, humanized EpAb2-6 (hEpAb2-6) or mouse hybridoma EbAb2-6 (mEpAb2-6) for 24 h. The apoptotic and necrotic cells were quantified by fluorescein annexin V-FITC/PI double labeling. (FIG. 7D) HCT116 cells were treated with 10 μg/ml control IgG, MT201, hEpAb2-6 or mEpAb2-6 for 16 h, followed by treatment with EpEX-His (50 nM) for 15 min. Levels of phosphorylated HGFR, AKT, and ERK, and (FIG. 7E) RIP proteins ADAM17 and presenilin 2 were examined by Western blotting. Anti-EpCAM antibody and crizotinib coordinately induces apoptosis in colon cancer cells. (FIG. 7F) HCT116 and HT29 cells were treated with 10 μg/ml NMIgG or EpAb2-6 and 4 μM HGFR inhibitor crizotinib for 24 h. The apoptotic and necrotic cells were quantified by fluorescein annexin V-FITC/PI double labeling. (FIG. 7G) HCT116 and HT29 cells were treated with 10 μg/ml NMIgG or EpAb2-6 and 10 μM HGFR inhibitor crizotinib. Cell invasion was assessed by a Transwell assay with matrigel after 24 h.
Cells were seeded and treated with 10 μg/ml mAb or inhibitor for 6 h; an unrelated mouse myeloma immunoglobulin used at appropriate dilution served as the IgG2a (Invitrogen #02-6200) isotype control. Apoptotic cells were detected using Annexin V-FITC and PI, and were analyzed using a flow cytometer (BD Immmunocytometry Systems). Early apoptosis was measured with the Annexin V-FITC Apoptosis Detection kit II (BD Pharmingen). Late apoptotic nuclei were detected with propidium iodide (PI) staining.

Molecule	apoptosis (HCT116 cells)	levels of phosphorylated ADAM17 and presenilin 2 (ADAM17 and presenilin 2)	antibody binding to EpCAM with mutations at Y32 (EGF-I domain) or Y95 (EGF-II domain) (EpCAM)	inducing apoptosis of cancer cells (cancer cells)	apoptosis (HT29 cells)
MT201: human anti-EpCAM antibody, adecatumumab (MT201)	did not show such effects	no such effects	did not affect	failing to	did not show such effects
B1	inducing apoptosis	decreased	marked reductions	induces cancer cell apoptosis	inducing apoptosis
